Measured values as given in patent US20120302526A1, “METHODS FOR TREATING POST-TRAUMATIC STRESS DISORDER” (Regents of the University of Colorado, a body corporate, priority 2011, published 2012).

Assays:
[1] = system: TBI induced anxiety-like behavior (LFPI rats); assay: Freezing in a novel context after LFPI and foot shock, post-injury ibudilast (Example 1, FIG. 1); assay type: in vivo, Sprague-Dawley rats
Description: Twenty-four adult viral-free male Sprague-Dawley rats (275-325 g; Harlan Laboratories, Madison, Wis.) were housed in pairs in temperature (23±3° C.) and light (12:12 light:dark) controlled rooms with ad libitum access to food and water. All procedures were performed in accordance with University of Colorado Institutional Animal Care and Use Committee guidelines for the humane use of laboratory rats in biological research. Rats were randomly assigned to 1 of 4 groups (n=6/group; Sham-operated/vehicle-injected, Sham-operated/ibudilast-injected, LFPI/vehicle-injected, LFPI/ibudilast-injected). All rats were shocked approximately 2 weeks following LFPI to enhance freezing behavior in a novel context (a natural fear reaction in this species). After freezing behavior had been established (1 month post-injury) animals were subjected to a 5-day regimen of ibudilast or vehicle (corn oil) injections (once daily for 5 days). Freezing behavior was again assessed at 2 weeks, 1 month, 2 months, and at 3 months post-injection. Lateral Fluid Percussion Injury. LFPI rats were anesthetized with halothane (4% induction, 2.0-2.5% maintenance) and mounted in a stereotaxic frame. The lateral fluid percussion injury used in this study utilized a PV820 Pneumatic PicoPump (World Precision Instruments, Inc., Sarasota, Fla.) to deliver standardized pressure pulses of air to a standing column of fluid. A 3.0 mm diameter craniotomy was centered at 3 mm caudal to bregma and 4.0 mm lateral of the sagittal suture, with the exposed dura remaining intact. A female Luer-Loc hub (inside diameter of 3.5 mm) was secured over the craniotomy with cyanoacrylate adhesive. Following hub implantation, the animal was removed from the stereotaxic frame and connected to the LFPI apparatus. […] Weight was recorded prior to each dosing. […] Rats were tested (5 minutes) and the percent of freezing behavior was assessed. Freezing was defined as the absence of movement except for heart beat/respiration, and was recorded in 10 sec intervals. Statistical Analyses: Results are expressed as mean±SEM. […]

[2] = system: TBI induced anxiety-like behavior (LFPI animals); assay: Freezing in test chamber after immediate shock, peri-injury MN166 (Example 3, FIG. 4B); assay type: in vivo, rats; conditions: 1 and 3 months post-injury, untreated LFPI approximately 60% (p<0.003 and 0.0001)
Excerpt: Animals with LFPI froze approximately 3-4 times longer (30-40%) than Naïve animals (<10%) when placed in the test chamber (FIG. 4A). […] However, LFPI animals froze substantially more (approximately 60%) after shock compared to LFPI animals receiving no shock (30-35%; p<0.001 and 0.003, respectively). […] LFPI animals consistently froze more than all other groups, at all time points, with or without shock. […] However, by 3 months this difference was no longer significant (p<0.493).

[3] = system: TBI induced anxiety-like behavior (LFPI rats); assay: Freezing in shock chamber after fear conditioning, peri-injury ibudilast (Example 2, FIG. 2); assay type: in vivo; conditions: 10 mg/kg in corn oil, 5 days (2 days before LFPI, day of LFPI, 2 days after); 1 and 3 months post-injury
Description: All animals were fear conditioned by receiving shock (1.5 mA; 3-sec) immediately upon being placed in an experimental chamber. Freezing behavior was then measured the following day upon being replaced in the same chamber. Naïve (no surgical procedures) and Sham (LFPI surgery without pressure pulse) froze at a typical rate of approximately 15-20% when measured at 1 and 3 months post-injury (FIG. 2). In contrast, cohorts who received LFPI froze approximately 3 times as long at both time points.

[4] = system: TBI induced anxiety-like behavior (LFPI animals); assay: Freezing in a novel context, shock at 1 month post-injury, peri-injury MN166 (Example 3, FIG. 3B); assay type: in vivo, rats; conditions: 10 mg/kg s.c. 5 days peri-injury
Excerpt: Freezing behavior in rats was elicited substantially in the manner described before. When freezing behavior was made the dependent variable after placement in a novel context, large and stable differences between Naïve and LFPI animals were seen (FIG. 3). LFPI animals froze approximately 20-40% of the time compared to 5-10% for Naïve animals (FIG. 3A). Increased freezing behavior in LFPI compared to Naïve animals was significant at all time points (p<0.001). […] These animals included Naïve and LFPI groups as in FIG. 3A, but also LFPI+MN166 (Animals received a 5-day dosing regimen in which they received once-daily ibudilast injections 24 hr prior to LFPI, the day of surgery and LFPI, and 3 days following LFPI (10 mg/kg, 1 ml/kg subcutaneously in corn oil)) and a Sham surgery group. Overall, LFPI animals froze substantially more than Naïve, LFPI+MN166, and Sham groups at the 1, 2 and 3 month time points (p<0.001). Similar to the animals of FIG. 3A, at 2 weeks and 1 month post-injury, LFPI animals froze approximately 20-30% of the time in the novel context compared to approximately 5% for Naïve animals (p<0.001).

With `CC(C)C(=O)c1c(C(C)C)nn2ccccc12` [Ibudilast, 2-Methyl-1-[2-(1-methylethyl)pyrazolo[1,5-a]pyridin-3-yl]-1-propanone] the “freezing behavior of treated LFPI rats vs untreated LFPI rats” value ([1]; LFPI rats, 10 mg/kg s.c. once daily for 5 days at 1 month post-injury, up to 3 months post-treatment, p<0.01) was “froze substantially less”, the “freezing compared to untreated injured animals” value ([1]; LFPI rats, 10 mg/kg s.c. once daily for 5 days, started 1 month post-injury, P<0.05) was “about 60%” and the “influence on freezing of control animals” value ([1]; Sham-operated rats, 10 mg/kg s.c. once daily for 5 days, all post-injection time-points) was “no influence on control animals”. The “percent freezing in test chamber after shock” value [2] was 25-35%, the “freezing behavior vs LFPI animals receiving vehicle injections” value [3] was “substantially less” and the “percent freezing in novel context” value ([4]; 3 months post-injury, untreated LFPI 50%, Naïve 8%, Sham 10%) was 14%. The “freezing compared to untreated LFPI animals, novel context” value ([4]; significant at 1, 2 and 3 months post-injury (p<0.01, 0.001, 0.0001)) was “greatly reduced freezing”.
